# Laboratory results published in publication PMC9482650, “Quantitative fragmentomics allow affinity mapping of interactomes” (Nature Communications, 2022).
# Ends that are not written are not given here. * marks the point of attachment. Biotin = O=C1N[C@H]2[C@H](CS[C@H]2CCCCC(=O)*)N1; ttds = NCCCOCCOCCOCCCNC(=O)CCC(=O)*
# What was measured:
# HeLa cell extract preys = test: PBM-AP-MS, PBM peptide baits; format: binding, human
# Method: HEK293T and HeLa cells were authenticated and found 100% identity to ATCC cat. CRL-3216 and ATCC cat. CCL-2, respectively. Jurkat and HaCat cell lines were not authenticated (original source: ECACC and Deutsches Krebsforschungszentrum DKFZ, respectively). HeLa cells were grown in DMEM (1 g/L glucose, Gibco) medium completed with 5% FCS and 40 μg/mL gentamicin, diluted every 3rd/4th day 1/10. HaCat cells were grown in DMEM (1 g/L glucose, Gibco) medium completed with 10% FCS and 40 μg/mL gentamicin, diluted every 3rd/4th day 1/4. Jurkat cells were grown in RPMI (Gibco) medium completed with 10% FCS and 40 μg/mL gentamicin, diluted every 3rd/4th day 1/12. All cells were kept at 37 °C and 5% CO2. For proteomics analyses cells were seeded on T-175 flasks. After they reached confluency, adherent cells were washed with PBS once and collected by scraping with ice-cold lysis buffer (Hepes-KOH pH 7.5 50 mM, NaCl 150 mM, Triton X-100 1%, complete EDTA-free protease inhibitor cocktail 1×, EDTA 2 mM, TCEP 5 mM, glycerol 10%). Jurkat cells were collected by 1000 g × centrifugation, washed once with PBS, then collected by 1000 g × 5 min centrifugation again and lysed in ice-cold lysis buffer. Lysates were sonicated 4 × 20 s with 1 s long pulses on ice, then incubated rotating at 4 °C for 30 min. Lysates were centrifuged at 12,000 rpm 4 °C for 20 min and supernatant was kept for further analysis. Concentration determination was carried out by standard Bradford method (Bio-Rad Protein Assay Dye Reagent #5000006) using BSA (MP BIomedicals #160069) as control on a Bio-Rad SmartSpec 3000 spectrophotometer instrument.
# (§1) For PBM-AP-MS experiments, 30 μl streptavidin resin was mixed with biotin or peptide at 50–60 μM concentration in 6–6.5 resin volume for 60 min to achieve resin saturation. For PDZ-AP-MS experiments, 30 μl streptavidin resin was mixed with biotinylated MBP or MBP-PDZ at 40-50 μM concentration in >1000× resin volume for 60 min to achieve resin saturation. After saturation, resins were washed a single time (ten resin volume, holdup buffer), and were depleted with biotin (1 mM biotin, 5–10 resin volume, 10 min). Finally, resins were washed two times. 0.5 ml 2 mg/ml cell lysate was added to the dry resin (1 mg total input) and were incubated at 4 °C for 2 h. Then, the beads were washed three times with 10 resin volume buffer containing: 50 mM TRIS pH 8.5, 150 mM NaCl, 1% TritonX-100, 10× complete EDTA-free protease inhibitor cocktail, 2 mM EDTA, 1 mM TCEP. Then, the beads were washed two times with ten resin volume buffer containing: 50 mM TRIS pH 8.5, 150 mM NaCl, 1 mM TCEP. Finally, captured protein was eluted from the resin in two steps and the eluted fractions were pooled. For each elution the beads were incubated for 30 min with three resin volume buffer containing: 20 mM TRIS pH8.5, 100 mM NaCl, 500 μM TCEP, 8 M Urea. Between each step, the beads were separated by mild centrifugation and the supernatant was removed by gentle pipetting.
# The samples were precipitated with TCA 20% overnight at 4 °C and centrifuged at 14,000 rpm for 10 min at 4 °C. The protein pellets were washed twice with 1 mL cold acetone and air dried. The protein extracts were solubilized in urea 8 M, reduced with 5 mM TCEP for 30 min, and alkylated with 10 mM iodoacetamide for 30 min in the dark. Double digestion was performed at 37 °C with 500 ng endoproteinase Lys-C for 4 h, followed by fourfold dilution and an overnight digestion with 500 ng trypsin. Peptide mixtures were then desalted on C18 spin-column and dried on Speed-Vacuum.
# Samples were analyzed using an Ultimate 3000 nano-RSLC (Thermo Scientific, San Jose California) coupled in line with a LTQ-Orbitrap ELITE mass spectrometer via a nano-electrospray ionization source (Thermo Scientific, San Jose California). […]
# CASK = test: PBM-AP-MS from Jurkat extract; format: binding, Homo sapiens; settings: prey CASK, PBM peptide bait
# Method: as §1
# (§2) Proteins were identified by database searching using SequestHT (Thermo Fisher Scientific) with Proteome Discoverer 2.4 software (PD2.4, Thermo Fisher Scientific) on human FASTA database downloaded from SwissProt (reviewed, release 2020_11_27, 20304 entries, https://www.uniprot.org/). Precursor and fragment mass tolerances were set at 7 ppm and 0.6 Da respectively, and up to two missed cleavages were allowed. Oxidation (M, +15.995 Da) was set as variable modification, and Carbamidomethylation (C, +57.021 Da) as fixed modification. Peptides and proteins were filtered with a false discovery rate at 1%. Label-free quantification was based on the extracted ion chromatography intensity of the peptides. All samples were measured in technical triplicates. The measured extracted ion chromatogram (XIC) intensities were normalized based on median intensities of the entire dataset to correct minor loading differences. For statistical tests and enrichment calculations, not detectable intensity values were treated with an imputation method, where the missing values were replaced by random values similar to the 10% of the lowest intensity values present in the entire dataset. Unpaired two-tailed T-test, assuming equal variance, were performed on obtained log2 XIC intensities. The detection threshold for enriched proteins in AP-MS experiments were analyzed above twofold enrichment with <0.01 P value. Then, proteins with PDZ-domains or PBMs were extracted from the list of enriched proteins. In case only a specific isoform of the detected protein contains a PBM, the identified peptide fragments were manually checked to check which isoform(s) were most likely detected. All raw LC-MS/MS data (from 165 runs) have been deposited to the ProteomeXchange via the PRIDE database with identifier PXD027743.
# MAGI1 = test: PBM-AP-MS from Jurkat extract; format: binding, Homo sapiens; settings: prey MAGI1, PBM peptide bait
# Method: as §1, §2
# SCRIB = test: PBM-AP-MS from Jurkat extract; format: binding, Homo sapiens; settings: prey SCRIB, PBM peptide bait
# Method: as §1, §2
# [1] = prey ARHGAP21, PBM peptide bait
# [2] = prey ARHGEF12, PBM peptide bait
Substance,"Enrichment values compared to biotin controls (HeLa cell extract preys; prey AHNAK, PBM peptide bait)","Enrichment values compared to biotin controls (HeLa cell extract preys; prey CASK, PBM peptide bait)","Enrichment values compared to biotin controls (HeLa cell extract preys; prey DLG1, PBM peptide bait)","Enrichment values compared to biotin controls (HeLa cell extract preys; prey DLG5, PBM peptide bait)","Enrichment values compared to biotin controls (HeLa cell extract preys; prey DVL2, PBM peptide bait)","Enrichment values compared to biotin controls (HeLa cell extract preys; prey HTRA1, PBM peptide bait)","Enrichment values compared to biotin controls (HeLa cell extract preys; prey InaDl, PBM peptide bait)","Enrichment values compared to biotin controls (HeLa cell extract preys; prey LAP2, PBM peptide bait)","Enrichment values compared to biotin controls (HeLa cell extract preys; prey LIN7C, PBM peptide bait)","Enrichment values compared to biotin controls (HeLa cell extract preys; prey LMO7, PBM peptide bait)","Enrichment values compared to biotin controls (HeLa cell extract preys; prey MPDZ, PBM peptide bait)","Enrichment values compared to biotin controls (HeLa cell extract preys; prey MPP5, PBM peptide bait)","Enrichment values compared to biotin controls (HeLa cell extract preys; prey MPP7, PBM peptide bait)","Enrichment values compared to biotin controls (HeLa cell extract preys; prey PDLIM5, PBM peptide bait)","Enrichment values compared to biotin controls (HeLa cell extract preys; prey PDLIM7, PBM peptide bait)","Enrichment values compared to biotin controls (HeLa cell extract preys; prey PSMD9, PBM peptide bait)","Enrichment values compared to biotin controls (HeLa cell extract preys; prey SCRIB, PBM peptide bait)","Enrichment values compared to biotin controls (HeLa cell extract preys; prey SIPA1L1, PBM peptide bait)","Enrichment values compared to biotin controls (HeLa cell extract preys; prey SNTB1, PBM peptide bait)","Enrichment values compared to biotin controls (HeLa cell extract preys; prey SNTB2, PBM peptide bait)",further results
HPV30E6 ({Biotin-ttds}-RHTTSTETAV),1.1,20.8,6.0,0.7,0.7,1.3,0.8,1.5,110.0,0.8,1.6,4.5,9.1,0.9,0.9,0.7,155.6,0.5,6.5,1.1,"Enrichment values compared to biotin controls (HeLa cell extract preys; prey LNX2, PBM peptide bait): 1.0; Enrichment values compared to biotin controls (HeLa cell extract preys; prey SDCBP, PBM peptide bait): 1.3; Enrichment values compared to biotin controls (HeLa cell extract preys; prey SNX27, PBM peptide bait): 1.4; Enrichment values compared to biotin controls (HeLa cell extract preys; prey SYNJ2BP, PBM peptide bait): 15.4; Fold changes HeLa, SYNJ2BP (HeLa cell extract preys; prey SYNJ2BP, PBM peptide bait): 15.4; Enrichment values compared to biotin controls (HeLa cell extract preys; prey TJP1, PBM peptide bait): 0.7; Enrichment values compared to biotin controls (CASK): 11.1; Enrichment values compared to biotin controls (MAGI1): 25.1; Enrichment values compared to biotin controls (SCRIB): 266.4"
HPV18E6,0.9,5.3,6.5,1.4,1.0,2.4,3.6,1.8,285.6,1.9,3.2,60.3,14.5,0.9,0.8,0.8,215.8,0.9,18.1,76.9,"Enrichment values compared to biotin controls (HeLa cell extract preys; [1]): 1.1; Enrichment values compared to biotin controls (HeLa cell extract preys; [2]): 1.0; Enrichment values compared to biotin controls (HeLa cell extract preys; prey DLG3, PBM peptide bait): 5.8; Enrichment values compared to biotin controls (HeLa cell extract preys; prey GOPC, PBM peptide bait): 2.8; Enrichment values compared to biotin controls (HeLa cell extract preys; prey MPP6, PBM peptide bait): 3.7; Enrichment values compared to biotin controls (HeLa cell extract preys; prey NHERF2, PBM peptide bait): 0.843; Enrichment values compared to biotin controls (HeLa cell extract preys; prey NHERF3, PBM peptide bait): 0.8; Enrichment values compared to biotin controls (HeLa cell extract preys; prey SNTA1, PBM peptide bait): 1.2; Enrichment values compared to biotin controls (HeLa cell extract preys; prey SNX27, PBM peptide bait): 12.8; Enrichment values compared to biotin controls (HeLa cell extract preys; prey SYNJ2BP, PBM peptide bait): 49.1; Enrichment values compared to biotin controls (HeLa cell extract preys; prey TJP1, PBM peptide bait): 1.7; Enrichment values compared to biotin controls (HeLa cell extract preys; prey TX1B3, PBM peptide bait): 30.0; Enrichment values compared to biotin controls (CASK): 15.2; Enrichment values compared to biotin controls (MAGI1): 134.3; Enrichment values compared to biotin controls (SCRIB): 288.2"
HPV35E6 ({Biotin-ttds}-SKPTRRETEV),0.9,4.9,6.4,1.3,0.8,2.0,1.3,1.4,131.1,2.0,2.5,4.0,11.7,0.8,0.9,0.6,217.5,0.5,8.8,48.7,"Enrichment values compared to biotin controls (HeLa cell extract preys; [1]): 1.3; Enrichment values compared to biotin controls (HeLa cell extract preys; [2]): 1.1; Enrichment values compared to biotin controls (HeLa cell extract preys; prey DLG3, PBM peptide bait): 5.8; Enrichment values compared to biotin controls (HeLa cell extract preys; prey GOPC, PBM peptide bait): 1.4; Enrichment values compared to biotin controls (HeLa cell extract preys; prey MPP6, PBM peptide bait): 1.1; Enrichment values compared to biotin controls (HeLa cell extract preys; prey NHERF2, PBM peptide bait): 0.9; Enrichment values compared to biotin controls (HeLa cell extract preys; prey NHERF3, PBM peptide bait): 0.9; Enrichment values compared to biotin controls (HeLa cell extract preys; prey SNTA1, PBM peptide bait): 0.5; Enrichment values compared to biotin controls (HeLa cell extract preys; prey SNX27, PBM peptide bait): 1.4; Enrichment values compared to biotin controls (HeLa cell extract preys; prey SYNJ2BP, PBM peptide bait): 63.6; Fold changes HeLa, SYNJ2BP (HeLa cell extract preys; prey SYNJ2BP, PBM peptide bait): 63.6; Enrichment values compared to biotin controls (HeLa cell extract preys; prey TJP1, PBM peptide bait): 0.9; Enrichment values compared to biotin controls (HeLa cell extract preys; prey TX1B3, PBM peptide bait): 15.3; Enrichment values compared to biotin controls (CASK): 12.7; Enrichment values compared to biotin controls (MAGI1): 54.3; Enrichment values compared to biotin controls (SCRIB): 314.5"
